{"source": "patent US9260760B2", "about": "“Method for determining complete response to anticancer therapy” (Board of Regents, The University of Texas System, priority 2012, dated 2016)", "key": {"[1]": {"tested_on": "unresectable metastatic colorectal cancer", "assay": "Study 3: maintenance XCEL after CR; RFS, PFS, OS", "assay_type": "in vivo, human", "description": "The institutional review board approved this study. […] All patients had clinical examinations, laboratory and CT scan every 2-3 months.\nThe principal investigator and two board-certified radiologists reviewed all the CT scan images. CR was defined according to the RECIST criteria as complete disappearance of measurable or none-measurable disease. Effective CR (eCR) was coined to describe normalization of an anatomical structure (e.g. nodes) that cannot regress completely. Confirmed CR included those patients who had CR by meeting the RECIST criteria or had achieved eCR or pathological CR. Near CR (nCR) were defined as almost complete disappearance (95-99%) of measurable disease on CT scan. Relapse free survival (RFS) was defined as the time from first radiologic CR to first recurrence, progression, or death. […] […] Treatment related toxicity was graded in accordance with the National Cancer Institute Common Toxicity Criteria for Adverse Events, version 3.0.\nContinuous variables were summarized using the median (range) and categorical variables were summarized in frequency tables. Patients were censored at the date of last follow-up if their disease had not progressed or if they had not died. The death date was ascertained by searching (ssdi.genealogy.rootsweb.com) using social security numbers or phone follow-up. Therefore, it was possible for censored OS times to be greater than censored RFS and PFS times. Kaplan-Meier estimates for RFS, PFS, and OS were calculated, and group comparisons made using log-rank tests."}, "[2]": {"details": "earlier study, cited from earlier work"}, "[3]": {"details": "Disease-free interval prior to metastasis <6 mo"}, "[4]": {"details": "Disease-free interval prior to metastasis ≧6 mo"}, "[5]": {"details": "Response to first-line therapy no"}, "[6]": {"details": "Response to first-line therapy yes"}}}
{"smiles": "Cc1ccc(-c2cc(C(F)(F)F)nn2-c2ccc(S(N)(=O)=O)cc2)cc1", "note": "[XCEL]", "values": [{"measurement": "pathological CR rate (observed)", "setting": "[1]; 1/19", "result": 5, "unit": "%"}, {"measurement": "two-year RFS", "setting": "[1]; 14 unresected and R1-2 resected patients", "result": 71, "unit": "%"}, {"measurement": "2-year RFS (95% CI)", "setting": "[1]; All patients", "result": "0.57 (0.39, 0.85)"}, {"measurement": "3-year OS (95% CI)", "setting": "[1]; All patients", "result": "0.79 (0.59, 1.00)"}, {"measurement": "2-year RFS (95% CI)", "setting": "[1]; [3]", "result": "0.64 (0 44, 1.00)"}, {"measurement": "3-year OS (95% CI)", "setting": "[1]; [3]", "result": "0.75 (0.54, 1.00)"}, {"measurement": "2-year RFS (95% CI)", "setting": "[1]; [4]", "result": "0.50 (0.28, 0.88)"}, {"measurement": "3-year OS (95% CI)", "setting": "[1]; [4]", "result": "0.74 (0.39, 1.00)"}, {"measurement": "2-year RFS (95% CI)", "setting": "[1]; Extrahepatic no", "result": "0.52 (0.15, 1.00)"}, {"measurement": "3-year OS (95% CI)", "setting": "[1]; Extrahepatic no", "result": "0.79 (0.66, 1.00)"}, {"measurement": "2-year RFS (95% CI)", "setting": "[1]; Extrahepatic yes", "result": "0.50 (.20, 1.00)"}, {"measurement": "3-year OS (95% CI)", "setting": "[1]; Extrahepatic yes", "result": "0.67 (0.55, 1.00)"}, {"measurement": "2-year RFS (95% CI)", "setting": "[1]; LDH Abnormal", "result": "0.33 (0.07, 1.00)"}, {"measurement": "3-year OS (95% CI)", "setting": "[1]; LDH Abnormal", "result": "0.50 (0.13, 1.00)"}, {"measurement": "2-year RFS (95% CI)", "setting": "[1]; LDH Normal", "result": "0.62 (0.42, 0.91)"}, {"measurement": "3-year OS (95% CI)", "setting": "[1]; LDH Normal", "result": "0.85 (0.68, 1.00)"}, {"measurement": "2-year RFS (95% CI)", "setting": "[1]; Maintenance XCEL no", "result": 0.00}, {"measurement": "3-year OS (95% CI)", "setting": "[1]; Maintenance XCEL no", "result": "0.38 (0.08, 1.00)"}, {"measurement": "2-year RFS (95% CI)", "setting": "[1]; Metastatic Number non-solitary", "result": "0.60 (0.36, 1.00)"}, {"measurement": "3-year OS (95% CI)", "setting": "[1]; Metastatic Number non-solitary", "result": "0.60 (0 29, 1.00)"}, {"measurement": "2-year RFS (95% CI)", "setting": "[1]; Metastatic Number solitary", "result": "0.56 (0.31, 1.00)"}, {"measurement": "3-year OS (95% CI)", "setting": "[1]; Metastatic Number solitary", "result": "0.89 (0.71, 1.00)"}, {"measurement": "2-year RFS (95% CI)", "setting": "[1]; Metastectomy R0", "result": "0.20 (0.03, 1.00)"}, {"measurement": "3-year OS (95% CI)", "setting": "[1]; Metastectomy R0", "result": "0.60 (0.29, 1.00)"}, {"measurement": "2-year RFS (95% CI)", "setting": "[1]; Metastectomy none/R1-2", "result": "0.71 (0.51, 0.99)"}, {"measurement": "3-year OS (95% CI)", "setting": "[1]; Metastectomy none/R1-2", "result": "0.60 (0.80, 1.00)"}, {"measurement": "3-year PFS", "setting": "[1]; R0-2 resected patients", "result": 37, "unit": "%"}, {"measurement": "two-year RFS", "setting": "[1]; R0 resected patients excluding the one pathological CR patient", "result": 0, "unit": "%"}, {"measurement": "2-year RFS (95% CI)", "setting": "[1]; Radiation no", "result": "0.69 (1.40, 1.00)"}, {"measurement": "3-year OS (95% CI)", "setting": "[1]; Radiation no", "result": "0.75 (0.43, 1.00)"}, {"measurement": "2-year RFS (95% CI)", "setting": "[1]; Radiation yes", "result": "0.50 (0.28, 0.88)"}, {"measurement": "3-year OS (95% CI)", "setting": "[1]; Radiation yes", "result": "0.79 (0.56, 1.00)"}, {"measurement": "2-year RFS (95% CI)", "setting": "[1]; [5]", "result": "0.40 (0.25, 1.00)"}, {"measurement": "3-year OS (95% CI)", "setting": "[1]; [5]", "result": "0.65 (0.49, 1.00)"}, {"measurement": "2-year RFS (95% CI)", "setting": "[1]; [6]", "result": "0.58 (0.39, 1.00)"}, {"measurement": "3-year OS (95% CI)", "setting": "[1]; [6]", "result": 1.00}, {"measurement": "2-year RFS (95% CI)", "setting": "[1]; Stage at Diagnosis II/III", "result": "0.40 (0.19, 0.85)"}, {"measurement": "3-year OS (95% CI)", "setting": "[1]; Stage at Diagnosis II/III", "result": "0.77 (0.53, 1.00)"}, {"measurement": "2-year RFS (95% CI)", "setting": "[1]; Stage at Diagnosis IV", "result": "0.78 (0.55, 1.00)"}, {"measurement": "3-year OS (95% CI)", "setting": "[1]; Stage at Diagnosis IV", "result": "0.83 (0.58, 1.00)"}, {"measurement": "2-year RFS (95% CI)", "setting": "[1]; Tumor size <8 cm", "result": "0.62 (0.39, 1.00)"}, {"measurement": "3-year OS (95% CI)", "setting": "[1]; Tumor size <8 cm", "result": 1.00}, {"measurement": "2-year RFS (95% CI)", "setting": "[1]; Tumor size ≧8 cm", "result": "0.40 (0.14, 1.00)"}, {"measurement": "3-year OS (95% CI)", "setting": "[1]; Tumor size ≧8 cm", "result": "0.60 (0.29, 1.00)"}, {"measurement": "Two-year RFS", "setting": "[1]; all 19 patients", "result": 57, "unit": "%"}, {"measurement": "median RFS", "setting": "[1]; all 19 patients", "result": "not reached"}, {"measurement": "CEA or CA19.9 during CR", "setting": "[1]; all patients with elevated serum CEA or CA19.9", "result": "normalized"}, {"measurement": "3-year PFS", "setting": "[1]; confirmed CR patients", "result": 100, "unit": "%"}, {"measurement": "CR", "setting": "[1]; eight of nine first-line irinotecan responders, XCEL alone or with radiation", "result": 88, "unit": "%"}, {"measurement": "two-year RFS", "setting": "[1]; five R0 resected patients", "result": 20, "unit": "%"}, {"measurement": "estimated 3-year survival rate", "setting": "[1]; from CR", "result": 79, "unit": "%"}, {"measurement": "four year OS", "setting": "[1]; from CR, maintenance XCEL", "result": 93, "unit": "%"}, {"measurement": "median OS", "setting": "[1]; from XCEL", "result": 51.9, "unit": "months"}, {"measurement": "estimated 3-year survival rate", "setting": "[1]; from diagnosis", "result": 95, "unit": "%"}, {"measurement": "median OS", "setting": "[1]; from onset of metastasis", "result": 73.3, "unit": "months"}, {"measurement": "median time from CR to relapse", "setting": "[1]; in vivo", "result": 13.1, "unit": "months"}, {"measurement": "relapse while on XCEL", "setting": "[1]; maintenance XCEL", "result": "no patient relapsed while on XCEL"}, {"measurement": "Two-year RFS estimate", "setting": "[1]; maintenance XCEL group", "result": 73, "unit": "%"}, {"measurement": "3-year PFS", "setting": "[1]; unconfirmed CR patients", "result": 0, "unit": "%"}, {"measurement": "3 year RFS", "setting": "[1]; whole cohorts", "result": 57, "unit": "%"}, {"measurement": "Two-year RFS estimate", "setting": "[1]; without maintenance XCEL", "result": 0, "unit": "%"}, {"measurement": "incidence of grade ⅔ HFS", "setting": "[2]; capecitabine 1000 mg/m2/d bid (Lin et al., 2002)", "result": 12.5, "unit": "%"}, {"measurement": "grade ¾ diarrhea", "setting": "[2]; versus capecitabine alone (Lin et al., 2002)", "result": "reduced"}]}
